Consider eight compounds from the supplement of paper PMC8960247.

Structures can show the parent of a compound that is named as a salt. ± gives the standard error.

Assay [1] has as its system 621-103 (TSC2-rescued). Put plainly: relative viability vs DMSO; higher = less cytotoxic. Particulars: serum: 10% FBS, 72 h.
For assay [2], the system named is 621-102 (TSC2-deficient). The assay is described as above. Particulars: serum: 10% FBS, 72 h.
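Further: immortalized renal angiomyolipoma cells stably carrying empty vector or TSC2, dosed in 384-well plates in DMEM, viability normalized to vehicle-treated wells within each plate.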

Regarding `Fc1cc(-c2cccc3ncc(-c4cnn(C5CCNCC5)c4)nc23)cc(F)c1CN1CCOCC1` [NVP-BSK805 dihydrochloride], the relative viability was 88.7 ± 5.9% in assay [1] (0.0001 µM); 102 ± 1.9% in assay [1] (0.001 µM); 111 ± 4.3% in assay [1] (0.01 µM); 104 ± 4.5% in assay [1] (0.1 µM); 77.1 ± 0.88% in assay [1] (1 µM); 4.07 ± 1.5% in assay [1] (10 µM). Moreover, the relative viability in assay [2] (0.0001 µM) came out at 102 ± 3.5%; in assay [2] (0.001 µM), 99.9 ± 4%; in assay [2] (0.01 µM), 101 ± 2.5%; in assay [2] (0.1 µM) it was 103 ± 1.4%; in assay [2] (1 µM) it was 89.2 ± 9.6%; in assay [2] (10 µM) it was 4.33 ± 1.8%.
Turning to `COc1cc(N2CCC(N3CCN(C)CC3)CC2)ccc1Nc1ncc(Cl)c(Nc2ccccc2S(=O)(=O)C(C)C)n1` [NVP-TAE684], the relative viability in assay [1] (0.0001 µM) turned out to be 98.4 ± 2.6%; in assay [1] (0.001 µM), 99.6 ± 1.4%; in assay [1] (0.01 µM), 99.8 ± 2%; in assay [1] (0.1 µM), 99.27 ± 0.36%; in assay [1] (1 µM), 75.2 ± 3.5%; in assay [1] (10 µM) it was 1.56 ± 0.21%. Also, the relative viability in assay [2] (0.0001 µM) is 105.9 ± 0.18%; in assay [2] (0.001 µM), 105 ± 2.5%; in assay [2] (0.01 µM), 100.1 ± 0.29%; in assay [2] (0.1 µM), 97.9 ± 2.6%; in assay [2] (1 µM), 80.8 ± 1.4%; in assay [2] (10 µM), 3.88 ± 1.5%.
In the case of `COc1ccccc1N1CCN(CC(O)COc2cccc3ccccc23)CC1` (stereo unspecified) [Naftopidil Dihydrochloride], the relative viability in assay [1] (0.0001 µM) came to 110 ± 0.54%; in assay [1] (0.001 µM), 97.8 ± 11%; in assay [1] (0.01 µM), 106.7 ± 0.54%; in assay [1] (0.1 µM), 106 ± 3.4%; in assay [1] (1 µM) it was 104 ± 1.7%; in assay [1] (10 µM) it was 108 ± 4.8%. Further, the relative viability in assay [2] (0.0001 µM) was 103 ± 5.6%; in assay [2] (0.001 µM), 109 ± 1.6%; in assay [2] (0.01 µM), 108.5 ± 0.88%; in assay [2] (0.1 µM) it was 106 ± 1.2%; in assay [2] (1 µM) it was 105.81 ± 0.046%; in assay [2] (10 µM) it was 110 ± 5%.
As for `COc1ccccc1N1CCN(CC(O)COc2cccc3ccccc23)CC1` (stereo unspecified) [Naftopidil], the relative viability in assay [1] (0.0001 µM) was found to be 114 ± 4.2%; in assay [1] (0.001 µM), 111.6 ± 0.22%; in assay [1] (0.01 µM), 112 ± 1.2%; in assay [1] (0.1 µM), 108 ± 1.9%; in assay [1] (1 µM), 102.2 ± 0.57%; in assay [1] (10 µM), 107 ± 2.7%. Moreover, the relative viability worked out at 106 ± 5.7% in assay [2] (0.0001 µM); 99.4 ± 2.5% in assay [2] (0.001 µM); 101.3 ± 0.6% in assay [2] (0.01 µM); 106 ± 5% in assay [2] (0.1 µM); 104.5 ± 1% in assay [2] (1 µM); 97.38 ± 0.86% in assay [2] (10 µM).
Regarding `c1ccc2c(CC3=NCCN3)cccc2c1` [Naphazoline HCl], the relative viability was determined as 103 ± 2% in assay [1] (0.0001 µM); 105.1 ± 0.24% in assay [1] (0.001 µM); 103 ± 1.7% in assay [1] (0.01 µM); 99.2 ± 5.5% in assay [1] (0.1 µM); 104 ± 0.12% in assay [1] (1 µM); 101.3 ± 0.62% in assay [1] (10 µM). For the same compound, the relative viability is 122 ± 2.4% in assay [2] (0.0001 µM); 109 ± 2.6% in assay [2] (0.001 µM); 117 ± 3% in assay [2] (0.01 µM); 111 ± 3.6% in assay [2] (0.1 µM); 106.3 ± 0.15% in assay [2] (1 µM); 112 ± 1.5% in assay [2] (10 µM).
As to `OC(CNCC(O)C1CCc2cc(F)ccc2O1)C1CCc2cc(F)ccc2O1` (stereo unspecified) [Nebivolol HCl], the relative viability in assay [1] (0.0001 µM) came out at 86.6 ± 8.6%; in assay [1] (0.001 µM), 116.1 ± 0.89%; in assay [1] (0.01 µM), 114.3 ± 0.92%; in assay [1] (0.1 µM), 120 ± 2.8%; in assay [1] (1 µM) it was 108 ± 4.2%; in assay [1] (10 µM), 36.4 ± 5.6%. The relative viability in assay [2] (0.0001 µM) is 81.745 ± 0.015%; in assay [2] (0.001 µM), 103 ± 2.9%; in assay [2] (0.01 µM), 106 ± 1.1%; in assay [2] (0.1 µM), 118 ± 7.1%; in assay [2] (1 µM), 106 ± 2.9%; in assay [2] (10 µM), 77.1 ± 11%.
With `CN(C)C(=O)Oc1cccc([N+](C)(C)C)c1` [Neostigmine bromide (Prostigmin)], the relative viability in assay [1] (0.0001 µM) was 92.6 ± 3.7%; in assay [1] (0.001 µM) it was 93.3 ± 2.9%; in assay [1] (0.01 µM) it was 93.6 ± 1.3%; in assay [1] (0.1 µM), 95.7 ± 2.7%; in assay [1] (1 µM), 93.8 ± 2.1%; in assay [1] (10 µM), 92.44 ± 0.58%. For the same compound, the relative viability in assay [2] (0.0001 µM) worked out at 103 ± 4.6%; in assay [2] (0.001 µM), 114 ± 3%; in assay [2] (0.01 µM) it was 104.2 ± 0.97%; in assay [2] (0.1 µM) it was 102 ± 7.2%; in assay [2] (1 µM) it was 102 ± 6%; in assay [2] (10 µM), 101.3 ± 0.82%.
For `CCOc1cc2ncc(C#N)c(Nc3ccc(OCc4ccccn4)c(Cl)c3)c2cc1NC(=O)/C=C/CN(C)C` [Neratinib], the relative viability was 101.7 ± 0.83% in assay [1] (0.0001 µM); 99.12 ± 0.5% in assay [1] (0.001 µM); 100.4 ± 0.55% in assay [1] (0.01 µM); 96 ± 2.1% in assay [1] (0.1 µM); 67.12 ± 0.38% in assay [1] (1 µM); 41.08 ± 0.095% in assay [1] (10 µM). Also, the relative viability in assay [2] (0.0001 µM) was determined as 110 ± 1.2%; in assay [2] (0.001 µM) it was 103 ± 1.1%; in assay [2] (0.01 µM), 117.5 ± 0.44%; in assay [2] (0.1 µM), 103.9 ± 0.36%; in assay [2] (1 µM), 88.058 ± 0.084%; in assay [2] (10 µM) it was 50.9 ± 0.56%.
